Results: patent US20240400555A1 (Initial Therapeutics, Inc., priority 2023, published 2024)
Like-named read-outs stand apart in the source and are kept apart here.

What was measured:
[1] = test system: HCT-116 Firefly-luciferase reporter cells; assay: Cellular c-MYC Reporter Assay; assay type: cell-based; conditions: Homo sapiens, read-out: pIC50 (converted)
Method: HCT-116 Firefly-luciferase reporter cells (BPS Bioscience) were seeded in 96-well tissue-culture treated sterile plates (Greiner Bio-One) at 5e4 cells/mL in 100 μL complete growth media (McCoy's 5A+10% FBS, +1% Pen-Strep, +1% G418). Cells were incubated at 37° C. with 5% CO2 for 4-6 h then treated with 3× compound solution in 50 μL complete growth media for a final volume of 150 μL per well with 0.2% DMSO. After 24 h incubation at 37° C. with 5% CO2, plates were allowed to equilibrate to RT for 20 min then developed by addition of 100 μL ONE-Glo Luciferase detection reagent (Promega), incubated at RT for 10 min. Luminescence was recorded using a SpectraMax i3x plate reader (Molecular Devices) and analyzed using Prism GraphPad 9 software.

MV-4-11 cells = assay: Cell Viability Assay in MV-4-11 Cells; assay type: cell-based; conditions: Homo sapiens, MV4-11, 72 h
Outline: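 Luminescent ATP read-out (CellTiter-Glo) after 72 h compound treatment of MV-4-11 leukaemia cells (7,000 per well, IMDM plus 10% FBS). Values expressed relative to DMSO control and derived by four-parameter non-linear regression.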

[2] = untitled table following Table 8a, HCT-116 Firefly-luciferase reporter cells, 24 h

| SMILES | IC50 [1, 2] [nM] | also measured |
| --- | --- | --- |
| O=C(c1ccc(-n2nnc3cccnc32)cc1F)N(c1ncccc1-c1cnn(CCO)c1)[C@@H]1CCCNC1 [Example 116, (R)-4-(3H-[1,2,3]triazolo[4,5-b]pyridin-3-yl)-2-fluoro-N-(3-(1-(2-hydroxyethyl)-1H-pyrazol-4-yl)pyridin-2-yl)-N-(piperidin-3-yl)benzamide] | 2570 |  |
| COC(=O)c1ccc2ccnc(N(C(=O)c3ccc(-n4nnc5cccnc54)cc3F)[C@@H]3CCCNC3)c2c1 [Example 129, methyl (R)-1-(4-(3H-[1,2,3]triazolo[4,5-b]pyridin-3-yl)-2-fluoro-N-(piperidin-3-yl)benzamido)isoquinoline-7-carboxylate] | 339 |  |
| Cc1cccc2ccnc(N(C(=O)c3ccc(-n4ncnn4)cc3)[C@@H]3CCCNC3)c12 [Example 234, (R)—N-(8-methylisoquinolin-1-yl)-N-(piperidin-3-yl)-4-(2H-tetrazol-2-yl)benzamide] |  | IC50 ([1]; HCT-116, 24 h): 398 nM |
| C#Cc1cccnc1N(C(=O)c1ccc(-n2nnc3cccnc32)cc1F)[C@@H]1CCCNC1 [Example 107, (R)-4-(3H-[1,2,3]triazolo[4,5-b]pyridin-3-yl)-N-(3-ethynylpyridin-2-yl)-2-fluoro-N-(piperidin-3-yl)benzamide] | 977 |  |
| O=C(c1ccc(-n2nnc3cccnc32)cc1F)N(c1nccc2ncccc12)[C@@H]1CCCNC1 [Example 249, (R)-4-(3H-[1,2,3]triazolo[4,5-b]pyridin-3-yl)-2-fluoro-N-(1,6-naphthyridin-5-yl)-N-(piperidin-3-yl)benzamide] | 1410 |  |
| O=C(c1ccc(-n2nnc3cccnc32)cc1F)N(c1nccc2ccc(CCCO)cc12)[C@@H]1CCCNC1 [Example 134, (R)-4-(3H-[1,2,3]triazolo[4,5-b]pyridin-3-yl)-2-fluoro-N-(7-(3 hydroxypropyl)isoquinolin-1-yl)-N-(piperidin-3-yl)benzamide] | 575 |  |
| O=C(c1ccc(-n2nnc3cccnc32)cc1F)N(c1nccc2ccncc12)[C@@H]1CCCNC1 [Example 300, (R)-4-(3H-[1,2,3]triazolo[4,5-b]pyridin-3-yl)-2-fluoro-N-(2,7-naphthyridin-1-yl)-N-(piperidin-3-yl)benzamide] | > 20000 |  |
| Cc1ccnc(N(C(=O)c2ccc(-n3nnc4cccnc43)cc2F)[C@@H]2CCCNC2)c1Cl [Example 284, (R)-4-(3H-[1,2,3]triazolo[4,5-b]pyridin-3-yl)-N-(3-chloro-4-methylpyridin-2-yl)-2-fluoro-N-(piperidin-3-yl)benzamide] | 1200 |  |
| CN(C)C(=O)c1cccnc1N(C(=O)c1ccc(-n2nnc3cccnc32)cc1F)[C@@H]1CCCNC1 [Example 247, (R)-2-(4-(3H-[1,2,3]triazolo[4,5-b]pyridin-3-yl)-2-fluoro-N-(piperidin-3-yl)benzamido)-N,N-dimethylnicotinamide] | 5010 |  |
| Cn1cc(-c2ccc(C(=O)N(c3nccc4cc(-c5cccnc5)ccc34)[C@@H]3CCCNC3)c(F)c2)nn1 [Example 370, (R)-2-fluoro-4-(1-methyl-1H-1,2,3-triazol-4-yl)-N-(piperidin-3-yl)-N-(6-(pyridin-3-yl)isoquinolin-1-yl)benzamide] |  | IC50 (MV-4-11 cells; MV-4-11 cells, 72 h, Cell-Titer Glo, read-out: IC50): 180 nM |
| Cn1cc(-c2ccc(C(=O)N(c3nccc4sc(-c5cnn(CC(N)=O)c5)cc34)[C@@H]3CCCNC3)c(F)c2)nn1 [Example 489, N-[2-[1-(2-amino-2-oxo-ethyl)pyrazol-4-yl]thieno[3,2-c]pyridin-4-yl]-2-fluoro-4-(1-methyltriazol-4-yl)-N-[(3R)-3-piperidyl]benzamide] |  | IC50 (MV-4-11 cells): > 10000 nM |

Further lines, with some results ahead:

| IC50 [1, 2] [nM] | SMILES | also measured |
| --- | --- | --- |
| > 10000 | Cc1cccc2ccnc(N(C(=O)C3CCN(C=O)CC3)[C@@H]3CCCNC3)c12 [Example 301, (R)-1-formyl-N-(8-methylisoquinolin-1-yl)-N-(piperidin-3-yl) piperidine-4-carboxamide] |  |
| 155 | Cc1cccc2ccnc(N(C(=O)c3ccc(-n4nnc5cccnc54)nc3)[C@@H]3CCCNC3)c12 [Example 245, (R)-6-(3H-[1,2,3]triazolo[4,5-b]pyridin-3-yl)-N-(8-methylisoquinolin-1-yl)-N-(piperidin-3-yl)nicotinamide] |  |
| 4170 | Cc1cccc2ccnc(N(C(=O)N3CC=C(c4noc5cc(F)ccc45)CC3)[C@@H]3CCCNC3)c12 [Example 257, (R)-4-(6-fluorobenzo[d]isoxazol-3-yl)-N-(8-methylisoquinolin-1-yl)-N-(piperidin-3-yl)-3,6-dihydropyridine-1(2H)-carboxamide] |  |
| 170 | O=C(c1ccc(-n2nnc3cccnc32)cc1F)N(c1nccc2cccc(/C=C/CO)c12)[C@@H]1CCCNC1 [Example 165, (R,E)-4-(3H-[1,2,3]triazolo[4,5-b]pyridin-3-yl)-2-fluoro-N-(8-(3-hydroxyprop-1-en-1-yl)isoquinolin-1-yl)-N-(piperidin-3-yl)benzamide] |  |
| 24.5 | Cc1cccc2ccnc(N(C(=O)c3ccc(-c4nnn(C)n4)cc3F)[C@@H]3CCCNC3)c12 [Example 125, (R)-2-fluoro-4-(2-methyl-2H-tetrazol-5-yl)-N-(8-methylisoquinolin-1-yl)-N-(piperidin-3-yl) benzamide] |  |
| 269 | Cc1cccc2ccnc(N(C(=O)c3ccc(-c4cnn5cccnc45)cc3F)[C@@H]3CCCNC3)c12 [Example 215, (R)-2-fluoro-N-(8-methylisoquinolin-1-yl)-N-(piperidin-3-yl)-4-(pyrazolo[1,5-a]pyrimidin-3-yl)benzamide] |  |
| 513 | Cc1cccc2ccnc(N(C(=O)c3ccc(-c4cn(C)nn4)cc3)[C@@H]3CCCNC3)c12 [Example 111, (R)-4-(1-methyl-1H-1,2,3-triazol-4-yl)-N-(8-methylisoquinolin-1-yl)-N-(piperidin-3-yl) benzamide] |  |
| 7760 | Cc1cccc2ccnc(N(C(=O)N3CCC(O)(c4ccccc4OCc4ccccc4)CC3)[C@@H]3CCCNC3)c12 [Example 297, (R)-4-(2-(benzyloxy)phenyl)-4-hydroxy-N-(8-methylisoquinolin-1-yl)-N-(piperidin-3-yl)piperidine-1-carboxamide] |  |
| 437 | Cc1cccc2ccnc(N(C(=O)c3ccc(-c4cnn(C)c4)cc3)[C@@H]3CCCNC3)c12 [Example 239, (R)-4-(1-methyl-1H-pyrazol-4-yl)-N-(8-methylisoquinolin-1-yl)-N-(piperidin-3-yl)benzamide] |  |
| 115 | Cc1ccc(C)c2c(N(C(=O)c3ccc(-n4nnc5cccnc54)cc3F)[C@@H]3CCCNC3)nccc12 [Example 253, (R)-4-(3H-[1,2,3]triazolo[4,5-b]pyridin-3-yl)-N-(5,8-dimethylisoquinolin-1-yl)-2-fluoro-N-(piperidin-3-yl)benzamide] |  |
| 2630 | Cc1cccc2ccnc(N(C(=O)c3ccc(Nc4nnc(C(F)(F)F)s4)cc3F)[C@@H]3CCCNC3)c12 [Example 281, 2-fluoro-N-(8-methyl-1-isoquinolyl)-N-[(3R)-3-piperidyl]-4-[[5-(trifluoromethyl)-1,3,4-thiadiazol-2-yl]amino] benzamide] |  |
| 288 | Cc1cccc2ccnc(N(C(=O)c3ccc(-n4nnc5ccc(-c6ccccc6)nc54)cc3F)[C@@H]3CCCNC3)c12 [Example 171, (R)-2-fluoro-N-(8-methylisoquinolin-1-yl)-4-(5-phenyl-3H-[1,2,3]triazolo[4,5-b]pyridin-3-yl)-N-(piperidin-3-yl)benzamideamide] |  |
| 2000 | Cc1cccc2ccnc(N(C(=O)N3CCN(c4nncc5ccccc45)CC3)[C@@H]3CCCNC3)c12 [Example 270] |  |
